# Laboratory results reported in US12390474B2, “Immediate release multilayer tablet” (priority 2020, dated 2025).
# Legend:
# [1] = Particle size distribution of samidorphan L-malate; format: physicochemical
# Excerpt: The particle size distribution of the samidorphan or samidorphan pharmaceutically acceptable salt (e.g., L-malate) present in a disclosed tablet (e.g., as part of a first tablet layer) may be for example, a (D10) of between about 10 μm to about 80 μm, a (D50) of between about 40 μm to about 200 μm and a (D90) of between about 100 μm to about 300 μm, more preferably a D10 of between about 25 μm and about 50 μm; the D50 of between about 60 μm and about 100 μm. In some embodiments, D90 of the samidorphan (e.g., L-malate salt) is between about 120 μm and about 175 μm. […] Particle size (diameter) may be determined by conventional techniques such as dynamic light scattering. The ‘Dx’ nomenclature means that ‘x’ percent of the particles have a number average diameter (‘D’) less than or equal to the reported value when measured by static or dynamic light scattering techniques known to those skilled in the art. (e.g. D10=175 μm, means that 10% of particles have a number average diameter of less than or equal to 175 μm), a D50 (or Dv50) of less than 300 μm, means that 50% of the particle population has a diameter of less than or equal to 300 μm. The term “Dx” as used herein refers to a volume based size and is equivalent to the term “DvX” commonly used to characterize particle sizes. Since the particles of the present invention may be irregular in shape, an approximation of the particle size is made on the basis of the volume-based particle size, which specifies the diameter of the sphere that has same volume as a given particle. Unless otherwise specified, all particle sizes are specified in terms of volume-based measurements and are measured by laser light scattering/diffraction. Particle sizes are then determined based on Mie scattering theory.
# For samidorphan L-malate, a recrystallization process was implemented providing particle size control during manufacturing to intentionally target a particle size distribution similar to the size of the drug product filler excipients. Unmilled and recrystallized grades of samidorphan L-malate were characterized for particle size distribution using 3 unique lots of each. The recrystallization was targeted to produce material with less fine particles thus increasing the D10. A slight increase in the D50 and decrease in the D90 adjusted the centerpoint of the distribution and decreased the overall span of the distribution. Overall the recrystallized materials had tighter distributions and reduced lot to lot variability, indicating better control. No change in the solid state form was observed between unmilled and recrystallized samidorphan L-malate as assessed by PXRD spectral comparison.
# [2] = Chemical compatibility of olanzapine and samidorphan L-malate, stability at 40° C./75% RH by HPLC; format: physicochemical; settings: for Percentage Total Impurities: 40° C./75 RH; for Percentage Related Compound B Impurity: 40° C./75% RH, ND: ≤LOD (0.02 wt %), LOQ: 0.05 wt %
# Experimental: Samples in 20 ml Wheaton scintillation vials were stored at 40° C./75% RH in open and closed vial configurations. Closed vials were vials closed with a urea cap and wrapped using parafilm under ambient conditions. The contents of the vials were tested at the start of the study and after 2, 6 and 12 weeks. At each time point samples were analysed by reversed phase HPLC (Waters ACQUITY UPLC H-Class System) with ACQUITY PDA Detector using a Waters ACQUITY UPLC CSH C18 Column, 3 mm×100 mm, and a gradient elution of acetate buffer pH 5.1 and 50/50 (v/v) acetonitrile/methanol.
# [3] = cited from earlier work
smiles,measurement,setting,value
NC(=O)c1ccc2c(c1O)[C@]13CCN(CC4CC4)[C@H](C2)[C@]1(O)CCC(=O)C3.O=C(O)C[C@H](O)C(=O)O [Sample number 5],Particle size D10,[1]; listed as 5,46 μm
same,Particle size D50,[1]; listed as 5,90 μm
same,Particle size D90,[1]; listed as 5,160 μm
NC(=O)c1ccc2c(c1O)[C@]13CCN(CC4CC4)[C@H](C2)[C@]1(O)CCC(=O)C3.O=C(O)C[C@H](O)C(=O)O [Sample number 6],Particle size D10,[1]; listed as 6,42 μm
same,Particle size D50,[1]; listed as 6,90 μm
same,Particle size D90,[1]; listed as 6,165 μm
NC(=O)c1ccc2c(c1O)[C@]13CCN(CC4CC4)[C@H](C2)[C@]1(O)CCC(=O)C3.O=C(O)C[C@H](O)C(=O)O [Sample number 1],Particle size D10,[1]; listed as 1,8 μm
same,Particle size D50,[1]; listed as 1,37 μm
same,Particle size D90,[1]; listed as 1,223 μm
NC(=O)c1ccc2c(c1O)[C@]13CCN(CC4CC4)[C@H](C2)[C@]1(O)CCC(=O)C3.O=C(O)C[C@H](O)C(=O)O [Sample number 4],Particle size D10,[1]; listed as 4,33 μm
same,Particle size D50,[1]; listed as 4,73 μm
same,Particle size D90,[1]; listed as 4,130 μm
"NC(=O)c1ccc2c(c1O)[C@]13CCN(CC4CC4)[C@H](C2)[C@]1(O)CCC(=O)C3.O=C(O)C[C@H](O)C(=O)O [Samidorphan L-malate, morphinan-3-carboxamide, 17-(cyclopropylmethyl)-4, 14-dihydroxy6-oxo-, (2S)-2-hydroxybutanedioate]",Percentage Total Impurities,"[2]; CLOSED vial, 2 WEEK",0.00%
same,Percentage Total Impurities,"[2]; CLOSED vial, 6 WEEK",0.00%
same,Percentage Total Impurities,"[2]; CLOSED vial, 12 WEEK",0.00%
same,Percentage Total Impurities,[2]; INITIAL,0.00%
same,Percentage Total Impurities,"[2]; OPEN vial, 2 WEEK",0.00%
same,Percentage Total Impurities,"[2]; OPEN vial, 6 WEEK",0.00%
same,Percentage Total Impurities,"[2]; OPEN vial, 12 WEEK",0.00%
same,pKa (amine),[3],8.3
same,pKa (phenol),[3],10.1
"Cc1cc2c(s1)Nc1ccccc1N=C2N1CCN(C)CC1 [Olanzapine, 2-methyl-4-(4-methyl-1-piperazinyl)-10H-thieno[2,3-b][1,5]benzodiazepine]",Percentage Related Compound B Impurity,[2]; INITIAL,0.01 wt %
same,Percentage Related Compound B Impurity,"[2]; OPEN vial, 2 WEEK",<LOQ
same,Percentage Total Impurities,"[2]; CLOSED vial, 2 WEEK",0.00%
same,Percentage Total Impurities,"[2]; CLOSED vial, 6 WEEK",0.00%
same,Percentage Total Impurities,"[2]; CLOSED vial, 12 WEEK",0.00%
same,Percentage Total Impurities,[2]; INITIAL,0.00%
same,Percentage Total Impurities,"[2]; OPEN vial, 2 WEEK",0.00%
same,Percentage Total Impurities,"[2]; OPEN vial, 6 WEEK",0.00%
same,Percentage Total Impurities,"[2]; OPEN vial, 12 WEEK",0.00%
NC(=O)c1ccc2c(c1O)[C@]13CCN(CC4CC4)[C@H](C2)[C@]1(O)CCC(=O)C3.O=C(O)C[C@H](O)C(=O)O [Sample number 3],Particle size D10,[1]; listed as 3,6 μm
same,Particle size D50,[1]; listed as 3,28 μm
same,Particle size D90,[1]; listed as 3,243 μm
NC(=O)c1ccc2c(c1O)[C@]13CCN(CC4CC4)[C@H](C2)[C@]1(O)CCC(=O)C3.O=C(O)C[C@H](O)C(=O)O [Sample number 2],Particle size D10,[1]; listed as 2,10 μm
same,Particle size D50,[1]; listed as 2,36 μm
same,Particle size D90,[1]; listed as 2,231 μm
